Measured values reported in patent US20230365546A1, “5-SUBSTITUTED INDOLE 3-AMIDE DERIVATIVES, PREPARATION METHOD AND USE THEREOF” (ORIGIANT PHARMACEUTICAL CO., LTD, priority 2020, published 2023).

How the values were obtained:
Assay in all cases: Kinase Profiler 10 μM panel
[1] = biological target: cKit(V560G)(h) (Homo sapiens (Human), UniProt P10721, V560G)
Procedure: (§1) In vitro kinase assays were conducted using Kinase Profiler services provided by Eurofins. The experimental method was as follows: the small molecule compound to be tested (0.001-10 μM), the protein kinase to be tested were incubated with a buffer containing substrate, 10 mM magnesium acetate, and [γ-^33P-ATP], the reaction was started by adding Mg\TPmix, after incubation for a period of time at room temperature, a 3% phosphate solution was added to the buffer to stop the reaction. Subsequently, 10 μL of the reaction mixture was quantitatively pipetted onto P30 filter paper, which was washed three times with 75 mM phosphate solution and then once with methanol. The P30 filter paper was air-dried and scintillation fluid was added for scintillation counting.

[2] = biological target: MST3(h) (Homo sapiens (Human), UniProt Q9Y6E0)
[3] = biological target: MEK2(h) (Homo sapiens (Human), UniProt P36507)
Procedure: as §1

[4] = biological target: IGF-1R(h), activated (Homo sapiens (Human), UniProt P08069)
Procedure: as §1

[5] = biological target: ALK(h) (Homo sapiens (Human), UniProt Q9UM73)
Procedure: as §1

[6] = biological target: EphA2(h) (Homo sapiens (Human), UniProt P29317)
Procedure: as §1

[7] = biological target: CDK18/cyclinY(h) (Homo sapiens (Human), UniProt Q07002)
Procedure: as §1

[8] = biological target: MKK3(h) (Homo sapiens (Human), UniProt P46734)
Procedure: as §1

[9] = biological target: ZAK(h) (Homo sapiens (Human), UniProt Q9NYL2)
Procedure: as §1

[10] = biological target: ALK2(h) (Homo sapiens (Human), UniProt Q04771)
Procedure: as §1

[11] = biological target: GSK3β(h) (Homo sapiens (Human), UniProt P49841)
Procedure: as §1

[12] = biological target: MYO3B(h) (Homo sapiens (Human), UniProt Q8WXR4)
Procedure: as §1

[13] = biological target: CK1γ1(h) (Homo sapiens (Human), UniProt Q9HCP0)
Procedure: as §1

[14] = biological target: BTK(h) (Homo sapiens (Human), UniProt Q06187)
Procedure: as §1

[15] = biological target: ULK2(h) (Homo sapiens (Human), UniProt Q8IYT8)
Procedure: as §1

[16] = biological target: CK1ϵ(h) (Homo sapiens (Human), UniProt P49674)
Procedure: as §1

[17] = biological target: PKBβ(h) (Homo sapiens (Human), UniProt P31751)
Procedure: as §1

[18] = biological target: FGFR4(h) (Homo sapiens (Human), UniProt P22455)
Procedure: as §1

[19] = biological target: GRK5(h) (Homo sapiens (Human), UniProt P34947)
Procedure: as §1

[20] = biological target: PKD2(h) (Homo sapiens (Human), UniProt Q9BZL6)
Procedure: as §1

[21] = biological target: PKCβI(h) (Homo sapiens (Human), UniProt P05771)
Procedure: as §1

[22] = biological target: SBK1(h) (Homo sapiens (Human), UniProt Q52WX2)
Sequence of SBK1(h) (Q52WX2 whole entry): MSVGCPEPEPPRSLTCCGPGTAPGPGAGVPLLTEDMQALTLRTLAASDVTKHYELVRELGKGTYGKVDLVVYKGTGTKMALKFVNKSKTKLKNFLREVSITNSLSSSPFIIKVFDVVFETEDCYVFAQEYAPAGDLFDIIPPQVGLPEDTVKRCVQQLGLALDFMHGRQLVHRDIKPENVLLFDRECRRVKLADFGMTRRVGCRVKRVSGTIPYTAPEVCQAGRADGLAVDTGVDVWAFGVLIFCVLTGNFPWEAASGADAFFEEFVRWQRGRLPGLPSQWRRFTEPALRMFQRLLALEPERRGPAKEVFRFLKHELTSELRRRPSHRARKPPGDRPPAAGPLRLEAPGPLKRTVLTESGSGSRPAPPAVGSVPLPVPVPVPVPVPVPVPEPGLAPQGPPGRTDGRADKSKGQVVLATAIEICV
Procedure: as §1

[23] = biological target: TNIK(h) (Homo sapiens (Human), UniProt Q9UKE5)
Sequence of TNIK(h) (Q9UKE5 whole entry): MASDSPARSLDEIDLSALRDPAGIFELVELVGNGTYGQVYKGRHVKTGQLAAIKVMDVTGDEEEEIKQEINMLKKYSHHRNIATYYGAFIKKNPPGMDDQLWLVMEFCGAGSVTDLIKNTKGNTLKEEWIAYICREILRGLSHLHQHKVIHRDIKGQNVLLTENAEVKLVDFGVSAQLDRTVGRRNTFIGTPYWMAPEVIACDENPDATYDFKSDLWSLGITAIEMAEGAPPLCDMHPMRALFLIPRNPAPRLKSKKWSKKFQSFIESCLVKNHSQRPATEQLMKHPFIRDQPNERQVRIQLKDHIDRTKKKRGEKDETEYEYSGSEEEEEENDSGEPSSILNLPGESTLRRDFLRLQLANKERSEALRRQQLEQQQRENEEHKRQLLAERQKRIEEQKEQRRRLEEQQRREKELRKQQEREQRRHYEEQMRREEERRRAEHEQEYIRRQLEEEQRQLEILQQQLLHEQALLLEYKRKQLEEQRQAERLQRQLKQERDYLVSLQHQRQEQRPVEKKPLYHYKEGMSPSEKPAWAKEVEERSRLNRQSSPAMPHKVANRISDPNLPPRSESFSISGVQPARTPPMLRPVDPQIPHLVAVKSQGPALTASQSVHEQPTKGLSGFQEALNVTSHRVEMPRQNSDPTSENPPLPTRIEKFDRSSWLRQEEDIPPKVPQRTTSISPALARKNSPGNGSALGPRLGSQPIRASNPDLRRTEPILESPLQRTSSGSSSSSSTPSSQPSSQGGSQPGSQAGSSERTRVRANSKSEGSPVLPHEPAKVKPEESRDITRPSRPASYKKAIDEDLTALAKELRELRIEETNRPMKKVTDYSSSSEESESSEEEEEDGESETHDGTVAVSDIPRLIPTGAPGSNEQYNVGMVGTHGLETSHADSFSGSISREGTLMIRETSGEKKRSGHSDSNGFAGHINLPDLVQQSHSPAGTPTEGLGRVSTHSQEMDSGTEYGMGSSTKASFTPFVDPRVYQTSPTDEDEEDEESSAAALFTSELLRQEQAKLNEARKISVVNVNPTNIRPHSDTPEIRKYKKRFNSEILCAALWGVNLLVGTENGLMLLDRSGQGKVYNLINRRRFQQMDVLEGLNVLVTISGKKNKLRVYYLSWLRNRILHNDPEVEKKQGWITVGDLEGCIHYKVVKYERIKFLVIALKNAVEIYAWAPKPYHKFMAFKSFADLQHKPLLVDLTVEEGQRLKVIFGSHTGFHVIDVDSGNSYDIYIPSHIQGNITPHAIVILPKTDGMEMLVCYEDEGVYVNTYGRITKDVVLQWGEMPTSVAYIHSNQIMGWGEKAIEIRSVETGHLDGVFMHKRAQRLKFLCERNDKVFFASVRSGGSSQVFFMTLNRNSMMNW
Procedure: as §1

[24] = biological target: CHK2(h) (Homo sapiens (Human), UniProt O96017)
Sequence of CHK2(h) (O96017 whole entry): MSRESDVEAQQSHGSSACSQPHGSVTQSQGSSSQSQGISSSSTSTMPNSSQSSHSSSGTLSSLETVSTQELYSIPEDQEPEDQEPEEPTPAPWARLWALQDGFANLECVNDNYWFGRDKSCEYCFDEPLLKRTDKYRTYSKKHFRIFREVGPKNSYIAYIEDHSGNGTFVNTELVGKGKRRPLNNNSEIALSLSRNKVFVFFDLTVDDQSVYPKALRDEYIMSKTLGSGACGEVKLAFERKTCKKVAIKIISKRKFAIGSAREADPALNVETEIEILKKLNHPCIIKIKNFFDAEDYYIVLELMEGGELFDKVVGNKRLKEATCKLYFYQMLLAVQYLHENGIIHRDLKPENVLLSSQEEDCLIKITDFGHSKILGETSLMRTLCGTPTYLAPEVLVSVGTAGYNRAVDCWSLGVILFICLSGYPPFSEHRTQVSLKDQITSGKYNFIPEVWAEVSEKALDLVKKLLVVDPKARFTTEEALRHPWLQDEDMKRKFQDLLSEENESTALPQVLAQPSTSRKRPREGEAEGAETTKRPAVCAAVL
Procedure: as §1

[25] = biological target: IR(h) (Homo sapiens (Human), UniProt P06213)
Sequence of IR(h) (P06213 28-1382): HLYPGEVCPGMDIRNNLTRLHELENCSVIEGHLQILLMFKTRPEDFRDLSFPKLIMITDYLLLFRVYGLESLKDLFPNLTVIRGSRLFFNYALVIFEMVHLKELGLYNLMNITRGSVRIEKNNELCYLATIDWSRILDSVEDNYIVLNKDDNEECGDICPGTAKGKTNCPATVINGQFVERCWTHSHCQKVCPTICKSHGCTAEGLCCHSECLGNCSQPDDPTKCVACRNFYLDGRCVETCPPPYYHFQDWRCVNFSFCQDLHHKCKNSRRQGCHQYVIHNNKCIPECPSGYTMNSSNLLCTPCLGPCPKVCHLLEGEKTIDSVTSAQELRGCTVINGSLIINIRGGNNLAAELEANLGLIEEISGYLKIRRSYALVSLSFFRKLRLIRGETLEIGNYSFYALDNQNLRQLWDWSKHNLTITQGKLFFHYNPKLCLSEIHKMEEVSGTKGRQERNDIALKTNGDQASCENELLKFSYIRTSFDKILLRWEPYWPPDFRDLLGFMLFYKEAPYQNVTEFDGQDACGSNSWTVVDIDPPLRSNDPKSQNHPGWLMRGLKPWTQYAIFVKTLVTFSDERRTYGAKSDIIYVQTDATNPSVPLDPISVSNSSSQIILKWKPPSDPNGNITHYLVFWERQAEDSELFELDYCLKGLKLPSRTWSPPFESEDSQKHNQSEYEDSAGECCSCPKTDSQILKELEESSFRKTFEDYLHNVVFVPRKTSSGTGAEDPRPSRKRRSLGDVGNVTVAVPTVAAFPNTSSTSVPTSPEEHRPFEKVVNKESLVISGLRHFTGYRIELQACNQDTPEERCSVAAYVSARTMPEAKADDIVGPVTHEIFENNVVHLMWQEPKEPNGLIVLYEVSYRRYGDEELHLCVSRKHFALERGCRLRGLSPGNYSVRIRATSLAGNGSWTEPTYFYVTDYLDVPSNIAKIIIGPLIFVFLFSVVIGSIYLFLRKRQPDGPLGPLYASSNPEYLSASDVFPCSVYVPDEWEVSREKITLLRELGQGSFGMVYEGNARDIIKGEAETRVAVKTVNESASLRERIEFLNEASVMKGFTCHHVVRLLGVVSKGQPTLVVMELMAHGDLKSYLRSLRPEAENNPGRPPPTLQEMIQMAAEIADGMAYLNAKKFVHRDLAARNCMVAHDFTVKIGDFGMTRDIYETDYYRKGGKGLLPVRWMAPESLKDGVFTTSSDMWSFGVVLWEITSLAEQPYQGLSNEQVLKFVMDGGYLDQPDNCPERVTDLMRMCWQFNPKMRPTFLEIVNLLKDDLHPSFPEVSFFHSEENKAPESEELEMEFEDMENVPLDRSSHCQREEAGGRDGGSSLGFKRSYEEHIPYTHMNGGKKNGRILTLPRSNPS
Procedure: as §1

[26] = biological target: PKBγ(h) (Homo sapiens (Human), UniProt Q9Y243)
Procedure: as §1

[27] = biological target: MEK1(h) (Homo sapiens (Human), UniProt Q02750)
Procedure: as §1

[28] = biological target: PAK2(h) (Homo sapiens (Human), UniProt Q13177)
Procedure: as §1

[29] = biological target: SRPK1(h) (Homo sapiens (Human), UniProt Q96SB4)
Procedure: as §1

[30] = biological target: HRI(h) (Homo sapiens (Human), UniProt Q9BQI3)
Procedure: as §1

[31] = biological target: EphA3(h) (Homo sapiens (Human), UniProt P29320)
Procedure: as §1

[32] = biological target: PEK(h) (Homo sapiens (Human), UniProt Q9NZJ5)
Sequence of PEK(h) (Q9NZJ5 30-1116): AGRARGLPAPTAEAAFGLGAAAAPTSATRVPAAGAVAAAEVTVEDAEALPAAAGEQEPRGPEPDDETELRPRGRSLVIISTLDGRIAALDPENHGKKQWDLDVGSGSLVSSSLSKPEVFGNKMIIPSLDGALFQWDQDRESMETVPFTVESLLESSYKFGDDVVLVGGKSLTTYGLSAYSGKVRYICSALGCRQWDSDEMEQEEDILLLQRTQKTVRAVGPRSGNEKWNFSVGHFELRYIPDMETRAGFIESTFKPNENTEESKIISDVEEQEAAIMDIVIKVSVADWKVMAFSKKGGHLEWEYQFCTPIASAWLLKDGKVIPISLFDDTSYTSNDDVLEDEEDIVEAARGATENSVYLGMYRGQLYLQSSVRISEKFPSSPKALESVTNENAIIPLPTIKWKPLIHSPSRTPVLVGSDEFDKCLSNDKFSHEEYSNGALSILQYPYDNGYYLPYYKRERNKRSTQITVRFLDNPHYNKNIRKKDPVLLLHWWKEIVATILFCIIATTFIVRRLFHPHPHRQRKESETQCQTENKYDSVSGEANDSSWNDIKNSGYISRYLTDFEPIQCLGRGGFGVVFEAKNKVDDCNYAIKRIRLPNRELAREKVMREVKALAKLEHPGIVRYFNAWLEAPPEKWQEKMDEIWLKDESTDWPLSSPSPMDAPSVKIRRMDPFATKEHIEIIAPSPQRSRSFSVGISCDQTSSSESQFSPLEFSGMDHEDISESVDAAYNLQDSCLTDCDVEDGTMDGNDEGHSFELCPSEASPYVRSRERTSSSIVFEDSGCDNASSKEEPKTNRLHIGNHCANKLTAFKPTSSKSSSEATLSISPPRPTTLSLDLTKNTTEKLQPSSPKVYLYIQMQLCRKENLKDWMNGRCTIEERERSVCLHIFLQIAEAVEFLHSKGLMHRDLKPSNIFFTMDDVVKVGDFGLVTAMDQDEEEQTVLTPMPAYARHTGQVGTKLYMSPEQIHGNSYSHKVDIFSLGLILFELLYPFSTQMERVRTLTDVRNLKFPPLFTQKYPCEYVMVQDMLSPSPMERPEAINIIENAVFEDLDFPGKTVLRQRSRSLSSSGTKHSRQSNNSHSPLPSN
Procedure: as §1

[33] = biological target: FGFR1(h) (Homo sapiens (Human), UniProt P11362)
Procedure: as §1

[34] = biological target: PI3KC2a(h) (Homo sapiens (Human), UniProt O00443)
Procedure: as §1

## C[C@H](NC(=O)c1cn(C)c2ccc(-c3ccn4nc(NC(=O)C5CC5)nc4c3)cc12)c1cccc(F)c1 [Compound 94, (S)-5-(2-(cyclopropanecarboxamido)-[1,2,4]triazolo[1,5-a]pyridin-7-yl)-N-(1-(3-fluorophenyl)ethyl)-1-methyl-1H-indole-3-carboxamide]
[1]
  Inhibition ratio/%: 65%
[2]
  Inhibition ratio/%: 33%
[3]
  Inhibition ratio/%: 13%
[4]
  Inhibition ratio/%: −17%
[5]
  Inhibition ratio/%: −7%
[6]
  Inhibition ratio/%: 15%
[7]
  Inhibition ratio/%: 74%
[8]
  Inhibition ratio/%: 38%
[9]
  Inhibition ratio/%: 59%
[10]
  Inhibition ratio/%: −17%
[11]
  Inhibition ratio/%: 1%
[12]
  Inhibition ratio/%: −18%
[13]
  Inhibition ratio/%: 19%
[14]
  Inhibition ratio/%: 65%
[15]
  Inhibition ratio/%: 55%
[16]
  Inhibition ratio/%: 59%
[17]
  Inhibition ratio/%: −8%
[18]
  Inhibition ratio/%: 37%
[19]
  Inhibition ratio/%: 21%
[20]
  Inhibition ratio/%: 9%
[21]
  Inhibition ratio/%: 6%
[22]
  Inhibition ratio/%: −19%
[23]
  Inhibition ratio/%: 59%
[24]
  Inhibition ratio/%: 8%
[25]
  Inhibition ratio/%: 27%
[26]
  Inhibition ratio/%: 31%
[27]
  Inhibition ratio/%: 43%
[28]
  Inhibition ratio/%: −14%
[29]
  Inhibition ratio/%: 50%
[30]
  Inhibition ratio/%: −4%
[31]
  Inhibition ratio/%: 6%
[32]
  Inhibition ratio/%: 36%
[33]
  Inhibition ratio/%: 70%
[34]
  Inhibition ratio/%: 40%

## C[C@H](NC(=O)c1c[nH]c2ccc(-c3ccc4nc(NC(=O)C5CC5)sc4c3)cc12)c1cccc(F)c1 [Compound 34, (S)-5-(2-(cyclopropanecarboxamido)benzo[d]thiazol-6-yl)-N-(1-(3-fluorophenyl)ethyl)-1H-indole-3-carboxamide]
[1]
  Inhibition ratio: 88%
[2]
  Inhibition ratio: 7%
[3]
  Inhibition ratio: 8%
[4]
  Inhibition ratio: 21%
[5]
  Inhibition ratio: 48%
[6]
  Inhibition ratio: 38%
[7]
  Inhibition ratio: 7%
[8]
  Inhibition ratio: 35%
[9]
  Inhibition ratio: 67%
[10]
  Inhibition ratio: 64%
[11]
  Inhibition ratio: 13%
[12]
  Inhibition ratio: 16%
[13]
  Inhibition ratio: 5%
[14]
  Inhibition ratio: 15%
[15]
  Inhibition ratio: 13%
[16]
  Inhibition ratio: 35%
[17]
  Inhibition ratio: 12%
[18]
  Inhibition ratio: 5%
[19]
  Inhibition ratio: 0%
[20]
  Inhibition ratio: 46%
[21]
  Inhibition ratio: 27%
[22]
  Inhibition ratio: −12%
[23]
  Inhibition ratio: 99%
[24]
  Inhibition ratio: 22%
[25]
  Inhibition ratio: 36%
[26]
  Inhibition ratio: 11%
[27]
  Inhibition ratio: 12%
[28]
  Inhibition ratio: 19%
[29]
  Inhibition ratio: 29%
[30]
  Inhibition ratio: −3%
[31]
  Inhibition ratio: −8%
[32]
  Inhibition ratio: 1%
[33]
  Inhibition ratio: 72%
[34]
  Inhibition ratio: 16%
